Data: patent publication US20230056935A1, “Compound, Antimicrobial Deodorant Composition Comprising Same, and Method for Producing Same” (LG Chem, Ltd., priority 2020, published 2023)

Key:
E. coli (ATCC 25922) = assay: Antibacterial property evaluation, bacterial growth inhibition (absorbance at 600 nm); format: cell-based; conditions: Escherichia coli, 16 hours at 35° C.; for Absorbance: 600 nm
Description: (§1) After introducing 1 mg to 200 mg of the compound to a nutrient broth culture medium (25 ml) inoculated with bacteria 3000±300 CFU/ml, the result is incubated for 16 hours at 35° C. in a shaking incubator to prepare a test culture medium. A control culture medium is prepared in the same manner except that the compound is not introduced in the test culture medium. For the test culture medium and the control culture medium, absorbance at a wavelength of 600 nm is measured using a UV-Vis spectrophotometer, and using the measured absorbance value, a bacterial growth inhibition rate (%) is calculated according to the following Mathematical Formula 1.
(§2) To a nutrient broth culture medium (25 ml) inoculated with Proteus mirabilis (ATCC 29906) or E. coli (ATCC 25922) 3000±300 CFU/ml, Compound 1 prepared in Preparation Example 1 was introduced in a content as described in the following Table 1, and the result was incubated for 16 hours at 35° C. in a shaking incubator to prepare a test culture medium. As a control, a control culture medium was prepared in the same manner except that the compound was not introduced in the test culture medium. For the test culture medium and the control culture medium, absorbance at a wavelength of 600 nm was measured using a UV-Vis spectrophotometer. Using the measurement results, a bacterial growth inhibition rate (%) was calculated according to the following Mathematical Formula 1.
(§3) (As: absorbance of test culture medium, A0: absorbance of control culture medium)

[1] = test system: Proteus mirabilis (ATCC 29906); assay: as above; format: cell-based; conditions: 16 hours at 35° C.; for Absorbance: 600 nm
Description: as §1, §2, §3

[2] = Deodorizing property evaluation (SPME, GC/MS peak area); conditions: total 80 mg
Description: To a test solution including the compound in 1 phr to 20 phr with respect to a total weight of 80 mg of a super absorbent polymer and the compound, 20 mL of a malodorous solution is introduced, isovaleraldehyde is adsorbed using a solid-phase microextraction method, and a GC/MS peak area of the adsorbed isovaleraldehyde is analyzed through a GC/MS analysis. For a control solution prepared in the same manner except that the compound is not introduced in the test solution, a GC/MS peak area of isovaleraldehyde is analyzed in the same manner, and, using the GC/MS peak area values of the test solution and the control solution, a deodorization rate is calculated according to the following Mathematical Formula 2.
Compound 1 prepared in Preparation Example 1 was introduced to a vial in a content as described in the following Table 2, and after introducing a super absorbent polymer (LG Chem., GS-301N) thereto so that a total content of the super absorbent polymer and Compound 1 becomes 80 mg, a malodorous solution (20 mL) was introduced thereto to prepare a test solution. As the malodorous solution, a solution in which diacetyl (242 ug/mL), isovaleraldehyde (49 ug/mL), dimethyl disulfide (30 ug/mL), dimethyl trisulfide (26 ug/mL) and p-cresol (2508 ug/mL) are mixed was 1/1000 diluted using an aqueous sodium chloride solution (0.9% by weight) and used. Volatile substances generated in the test solution was adsorbed using a solid-phase microextraction method (SPME), and through a GC/MS analysis, GC/MS peak areas of the adsorbed malodorous substances (diacetyl, isovaleraldehyde, dimethyl disulfide, dimethyl trisulfide and p-cresol) were each analyzed. For a control solution prepared in the same manner except that Compound 1 was not included, peak areas of the malodorous substances were analyzed in the same manner, and deodorization rates thereof were each calculated according to the following Mathematical Formula 2.
(Cs: GC/MS peak areas of malodorous substances test solution, C0: GC/MS peak areas of malodorous substances of control solution)

[3] = content 20 mg in 25 ml nutrient broth
[4] = content 50 mg in 25 ml nutrient broth
[5] = content 100 mg in 25 ml nutrient broth
[6] = 1 phr of Compound 1 with super absorbent polymer
[7] = 2 phr of Compound 1 with super absorbent polymer
[8] = 5 phr of Compound 1 with super absorbent polymer
[9] = 8 phr of Compound 1 with super absorbent polymer
[10] = 10 phr of Compound 1 with super absorbent polymer

C=CC(=O)OCCC1CCCCN1C(=O)OC(C)CC (stereo not shown) [Compound 1]
Bacterial Growth Inhibition Rate (%) (E. coli (ATCC 25922); [3]): 62.9%
Absorbance (E. coli (ATCC 25922); [3]): 0.063
Bacterial Growth Inhibition Rate (%) (E. coli (ATCC 25922); [4]): 92.4%
Absorbance (E. coli (ATCC 25922); [4]): 0.013
Bacterial Growth Inhibition Rate (%) (E. coli (ATCC 25922); [5]): 88.8%
Absorbance (E. coli (ATCC 25922); [5]): 0.019
Bacterial Growth Inhibition Rate (%) [1, 3]: 55.6%
Absorbance [1, 3]: 0.059
Bacterial Growth Inhibition Rate (%) [1, 4]: 91.7%
Absorbance [1, 4]: 0.011
Bacterial Growth Inhibition Rate (%) [1, 5]: 89.5%
Absorbance [1, 5]: 0.014
Deodorization rate (%) for Diacetyl [2, 6]: 79%
Deodorization rate (%) for Dimethyl Disulfide [2, 6]: 65%
Deodorization rate (%) for Dimethyl Trisulfide [2, 6]: 16%
Deodorization rate (%) for Isovaleraldehyde [2, 6]: 87%
Deodorization rate (%) for p-Cresol [2, 6]: 2%
Deodorization rate (%) for Diacetyl [2, 7]: 86%
Deodorization rate (%) for Dimethyl Disulfide [2, 7]: 76%
Deodorization rate (%) for Dimethyl Trisulfide [2, 7]: 27%
Deodorization rate (%) for Isovaleraldehyde [2, 7]: 92%
Deodorization rate (%) for p-Cresol [2, 7]: 20%
Deodorization rate (%) for Diacetyl [2, 8]: 91%
Deodorization rate (%) for Dimethyl Disulfide [2, 8]: 84%
Deodorization rate (%) for Dimethyl Trisulfide [2, 8]: 61%
Deodorization rate (%) for Isovaleraldehyde [2, 8]: 94%
Deodorization rate (%) for p-Cresol [2, 8]: 37%
Deodorization rate (%) for Diacetyl [2, 9]: 92%
Deodorization rate (%) for Dimethyl Disulfide [2, 9]: 88%
Deodorization rate (%) for Dimethyl Trisulfide [2, 9]: 72%
Deodorization rate (%) for Isovaleraldehyde [2, 9]: 95%
Deodorization rate (%) for p-Cresol [2, 9]: 46%
Deodorization rate (%) for Diacetyl [2, 10]: 93%
Deodorization rate (%) for Dimethyl Disulfide [2, 10]: 88%
Deodorization rate (%) for Dimethyl Trisulfide [2, 10]: 76%
Deodorization rate (%) for Isovaleraldehyde [2, 10]: 95%
Deodorization rate (%) for p-Cresol [2, 10]: 61%
